Laboratory results taken from article PMC7586344, “Discovery of Novel pERK1/2- or β-Arrestin-Preferring 5-HT1A Receptor-Biased Agonists: Diversified Therapeutic-like versus Side Effect Profile” (Journal of Medicinal Chemistry, 2020).

Assays:
[1] = Intrinsic clearance; type: in vitro ADME; conditions: rat, rat liver microsomes, pH 7.4
[2] = target: T1, hERG channel (Homo sapiens, UniProt Q12809); experiment: hERG-CHO automated patch-clamp; type: cell-based
T1 construct: host or cells: CHO (hERG-CHO)
T1 sequence (Q12809 whole entry): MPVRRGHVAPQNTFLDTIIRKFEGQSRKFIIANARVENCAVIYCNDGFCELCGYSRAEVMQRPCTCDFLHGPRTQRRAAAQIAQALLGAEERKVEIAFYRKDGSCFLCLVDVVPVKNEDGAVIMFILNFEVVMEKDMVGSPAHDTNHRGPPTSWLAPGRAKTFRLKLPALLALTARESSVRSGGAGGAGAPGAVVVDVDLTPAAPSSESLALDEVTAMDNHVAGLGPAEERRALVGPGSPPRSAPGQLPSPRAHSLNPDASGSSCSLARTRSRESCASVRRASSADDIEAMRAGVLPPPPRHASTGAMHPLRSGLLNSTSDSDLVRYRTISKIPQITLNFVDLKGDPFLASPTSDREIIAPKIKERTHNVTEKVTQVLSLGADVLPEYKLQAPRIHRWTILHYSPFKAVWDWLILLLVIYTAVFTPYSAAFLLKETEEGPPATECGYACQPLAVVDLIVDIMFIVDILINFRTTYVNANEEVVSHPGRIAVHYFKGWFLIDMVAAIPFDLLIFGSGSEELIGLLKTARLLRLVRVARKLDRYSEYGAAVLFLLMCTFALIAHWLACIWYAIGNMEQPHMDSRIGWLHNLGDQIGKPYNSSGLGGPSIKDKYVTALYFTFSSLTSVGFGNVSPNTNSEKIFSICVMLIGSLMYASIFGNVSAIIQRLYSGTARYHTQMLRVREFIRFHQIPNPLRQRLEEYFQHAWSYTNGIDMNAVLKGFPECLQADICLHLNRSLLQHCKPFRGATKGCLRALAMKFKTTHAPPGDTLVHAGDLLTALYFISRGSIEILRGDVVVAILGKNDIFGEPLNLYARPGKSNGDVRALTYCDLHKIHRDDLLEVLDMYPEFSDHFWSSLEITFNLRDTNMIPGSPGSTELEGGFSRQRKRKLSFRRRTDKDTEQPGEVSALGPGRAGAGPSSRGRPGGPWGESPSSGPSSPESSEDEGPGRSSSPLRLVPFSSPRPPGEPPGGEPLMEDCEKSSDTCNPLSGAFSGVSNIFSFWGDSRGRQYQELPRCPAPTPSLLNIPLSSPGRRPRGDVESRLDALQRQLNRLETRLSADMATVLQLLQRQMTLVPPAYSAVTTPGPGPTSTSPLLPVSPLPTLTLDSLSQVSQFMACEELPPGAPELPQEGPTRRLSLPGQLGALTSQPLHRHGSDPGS

[3] = target: T2, 5-HT1D (Homo sapiens, UniProt P28221); experiment: Off-target binding screen; conditions: read-out: % Inhibition of Control Specific Binding; for inhibition at 1 µM: 1000 nM
T2 construct: Eurofins Pharma Discovery Services (contract screen)
T2 sequence (P28221 whole entry, species assumed): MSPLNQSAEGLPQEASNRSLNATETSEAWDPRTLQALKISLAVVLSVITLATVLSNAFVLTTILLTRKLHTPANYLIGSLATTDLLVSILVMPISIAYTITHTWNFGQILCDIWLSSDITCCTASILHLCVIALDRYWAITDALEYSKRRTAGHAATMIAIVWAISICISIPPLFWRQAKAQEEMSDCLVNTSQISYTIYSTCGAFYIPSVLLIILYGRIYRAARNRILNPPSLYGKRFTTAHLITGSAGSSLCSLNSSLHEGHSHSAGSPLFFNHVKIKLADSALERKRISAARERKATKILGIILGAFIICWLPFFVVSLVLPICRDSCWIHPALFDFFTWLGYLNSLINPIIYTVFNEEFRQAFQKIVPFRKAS

[4] = target: T3, 5-HT5A (Homo sapiens, UniProt P47898); experiment: Off-target binding screen; conditions: read-out: % Inhibition of Control Specific Binding; for inhibition at 1 µM: 1000 nM
T3 construct: Eurofins Pharma Discovery Services (contract screen)
T3 sequence (P47898 whole entry, species assumed): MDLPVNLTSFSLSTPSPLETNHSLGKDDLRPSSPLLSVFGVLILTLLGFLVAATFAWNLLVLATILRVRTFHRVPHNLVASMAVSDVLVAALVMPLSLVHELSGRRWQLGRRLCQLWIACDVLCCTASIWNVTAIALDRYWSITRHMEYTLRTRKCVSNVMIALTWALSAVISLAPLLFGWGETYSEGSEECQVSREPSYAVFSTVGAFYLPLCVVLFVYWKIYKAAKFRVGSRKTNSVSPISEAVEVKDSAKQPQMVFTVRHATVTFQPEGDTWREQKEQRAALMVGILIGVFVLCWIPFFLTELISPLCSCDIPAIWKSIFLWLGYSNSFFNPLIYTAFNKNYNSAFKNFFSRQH

[5] = target: T4, 5-HT6 (Homo sapiens, UniProt P50406); experiment: Off-target binding screen; conditions: 1000 nM, read-out: % Inhibition of Control Specific Binding
T4 construct: Eurofins Pharma Discovery Services (contract screen)
T4 sequence (P50406 whole entry, species assumed): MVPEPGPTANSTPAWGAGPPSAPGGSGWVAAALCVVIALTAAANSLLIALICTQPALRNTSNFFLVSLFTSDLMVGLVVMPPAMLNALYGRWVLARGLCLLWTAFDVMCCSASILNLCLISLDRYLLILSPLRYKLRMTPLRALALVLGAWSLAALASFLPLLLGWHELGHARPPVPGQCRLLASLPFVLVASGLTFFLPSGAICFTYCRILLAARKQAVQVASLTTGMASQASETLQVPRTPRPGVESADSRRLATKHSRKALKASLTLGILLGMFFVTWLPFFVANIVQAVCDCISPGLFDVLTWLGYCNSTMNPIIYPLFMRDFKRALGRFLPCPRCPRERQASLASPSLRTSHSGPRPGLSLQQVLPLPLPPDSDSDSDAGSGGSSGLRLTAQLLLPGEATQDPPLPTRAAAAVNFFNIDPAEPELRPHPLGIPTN

[6] = target: T5, α1B (Homo sapiens, UniProt P35368); experiment: Off-target binding screen; conditions: read-out: % Inhibition of Control Specific Binding; for inhibition at 1 µM: 1000 nM; for inhibition at 0.01 µM: 10 nM; for inhibition at 0.1 µM: 100 nM
T5 construct: Eurofins Pharma Discovery Services (contract screen)
T5 sequence (P35368 1-520): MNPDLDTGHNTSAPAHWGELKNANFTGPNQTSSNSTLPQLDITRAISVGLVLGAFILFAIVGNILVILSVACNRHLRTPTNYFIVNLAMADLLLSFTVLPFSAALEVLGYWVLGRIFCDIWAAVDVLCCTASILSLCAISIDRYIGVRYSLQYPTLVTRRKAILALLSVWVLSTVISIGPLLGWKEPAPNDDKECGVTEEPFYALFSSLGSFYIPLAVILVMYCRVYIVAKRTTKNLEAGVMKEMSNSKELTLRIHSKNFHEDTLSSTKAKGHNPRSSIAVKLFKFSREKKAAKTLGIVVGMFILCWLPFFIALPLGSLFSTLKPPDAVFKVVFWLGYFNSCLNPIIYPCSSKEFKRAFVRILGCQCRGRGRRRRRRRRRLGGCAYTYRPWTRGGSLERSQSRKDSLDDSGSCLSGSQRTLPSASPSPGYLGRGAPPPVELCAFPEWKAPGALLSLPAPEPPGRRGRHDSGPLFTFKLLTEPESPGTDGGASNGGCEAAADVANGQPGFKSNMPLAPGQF

[7] = target: T6, D1 (Homo sapiens, UniProt P21728); experiment: Off-target binding screen; conditions: read-out: % Inhibition of Control Specific Binding; for inhibition at 1 µM: 1000 nM
T6 construct: Eurofins Pharma Discovery Services (contract assay)
T6 sequence (P21728 whole entry): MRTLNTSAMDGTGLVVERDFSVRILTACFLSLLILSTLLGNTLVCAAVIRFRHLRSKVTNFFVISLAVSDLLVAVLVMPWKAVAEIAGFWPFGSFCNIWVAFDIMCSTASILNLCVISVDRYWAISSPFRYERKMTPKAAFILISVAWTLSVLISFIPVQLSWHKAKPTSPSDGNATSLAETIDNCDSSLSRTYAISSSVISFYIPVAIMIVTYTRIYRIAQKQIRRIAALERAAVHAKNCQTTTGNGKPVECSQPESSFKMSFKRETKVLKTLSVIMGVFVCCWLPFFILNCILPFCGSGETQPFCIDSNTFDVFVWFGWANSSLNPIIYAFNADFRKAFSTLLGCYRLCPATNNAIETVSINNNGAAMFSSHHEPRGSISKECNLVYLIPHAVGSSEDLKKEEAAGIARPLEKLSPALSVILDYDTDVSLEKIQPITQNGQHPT

[8] = target: T7, D3 (Homo sapiens, UniProt P35462); experiment: Off-target binding screen; conditions: read-out: % Inhibition of Control Specific Binding; for inhibition at 0.01 µM: 10 nM; for inhibition at 0.1 µM: 100 nM; for inhibition at 1 µM: 1000 nM
T7 construct: Eurofins Pharma Discovery Services (contract assay)
T7 sequence (P35462 whole entry): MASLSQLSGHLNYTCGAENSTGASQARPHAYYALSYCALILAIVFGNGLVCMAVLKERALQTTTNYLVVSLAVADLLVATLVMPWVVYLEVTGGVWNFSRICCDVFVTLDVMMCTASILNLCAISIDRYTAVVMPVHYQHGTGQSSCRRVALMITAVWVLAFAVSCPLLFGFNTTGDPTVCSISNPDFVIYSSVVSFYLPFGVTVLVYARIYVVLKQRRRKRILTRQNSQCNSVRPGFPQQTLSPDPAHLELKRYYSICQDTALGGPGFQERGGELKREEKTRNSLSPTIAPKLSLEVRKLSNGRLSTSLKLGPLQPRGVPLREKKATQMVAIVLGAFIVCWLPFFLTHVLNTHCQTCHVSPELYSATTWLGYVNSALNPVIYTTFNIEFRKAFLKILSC

[9] = target: T8, CB2 (Homo sapiens, UniProt P34972); experiment: Off-target binding screen; conditions: 1000 nM, read-out: % Inhibition of Control Specific Binding
T8 construct: Eurofins Pharma Discovery Services (contract assay)
T8 sequence (P34972 whole entry, species assumed): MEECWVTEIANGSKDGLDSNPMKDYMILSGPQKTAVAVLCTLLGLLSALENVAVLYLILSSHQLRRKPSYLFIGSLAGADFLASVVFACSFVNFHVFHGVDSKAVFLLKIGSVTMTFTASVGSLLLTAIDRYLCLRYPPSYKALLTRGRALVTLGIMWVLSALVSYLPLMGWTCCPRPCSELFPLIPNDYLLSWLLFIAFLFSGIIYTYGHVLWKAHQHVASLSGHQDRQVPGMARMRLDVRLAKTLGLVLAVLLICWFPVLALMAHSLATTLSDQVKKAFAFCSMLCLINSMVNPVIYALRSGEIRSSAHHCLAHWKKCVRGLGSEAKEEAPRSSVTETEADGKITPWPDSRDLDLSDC

[10] = target: T9, M2 (Homo sapiens, UniProt P08172); experiment: Off-target binding screen; conditions: 1000 nM, read-out: % Inhibition of Control Specific Binding
T9 construct: Eurofins Pharma Discovery Services (contract assay)
T9 sequence (P08172 1-466): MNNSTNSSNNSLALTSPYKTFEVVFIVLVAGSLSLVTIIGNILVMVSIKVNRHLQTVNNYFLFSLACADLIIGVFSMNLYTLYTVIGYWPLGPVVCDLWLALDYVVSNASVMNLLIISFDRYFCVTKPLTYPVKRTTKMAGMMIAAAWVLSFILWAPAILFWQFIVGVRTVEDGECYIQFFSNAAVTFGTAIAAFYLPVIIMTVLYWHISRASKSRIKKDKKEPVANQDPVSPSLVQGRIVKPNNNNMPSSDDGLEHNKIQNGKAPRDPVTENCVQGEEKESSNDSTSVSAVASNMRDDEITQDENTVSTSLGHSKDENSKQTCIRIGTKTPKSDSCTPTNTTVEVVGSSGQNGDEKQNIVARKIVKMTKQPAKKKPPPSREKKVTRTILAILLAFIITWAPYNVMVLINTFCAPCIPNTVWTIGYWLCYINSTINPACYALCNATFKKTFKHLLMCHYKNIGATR

[11] = target: T10, M4 (Homo sapiens, UniProt P08173); experiment: Off-target binding screen; conditions: 1000 nM, read-out: % Inhibition of Control Specific Binding
T10 construct: Eurofins Pharma Discovery Services (contract assay)
T10 sequence (P08173 1-479): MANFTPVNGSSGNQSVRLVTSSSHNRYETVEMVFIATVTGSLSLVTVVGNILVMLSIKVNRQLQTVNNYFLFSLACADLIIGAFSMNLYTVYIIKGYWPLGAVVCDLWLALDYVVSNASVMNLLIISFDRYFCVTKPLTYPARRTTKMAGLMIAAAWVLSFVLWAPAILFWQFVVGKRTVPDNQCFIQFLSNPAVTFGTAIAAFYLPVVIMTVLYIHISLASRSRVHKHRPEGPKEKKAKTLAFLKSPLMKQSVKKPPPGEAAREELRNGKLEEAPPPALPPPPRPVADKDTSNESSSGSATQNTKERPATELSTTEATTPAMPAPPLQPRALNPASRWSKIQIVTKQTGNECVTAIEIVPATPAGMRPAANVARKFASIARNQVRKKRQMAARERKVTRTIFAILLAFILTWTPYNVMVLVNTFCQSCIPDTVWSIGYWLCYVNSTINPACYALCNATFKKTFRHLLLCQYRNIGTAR

[12] = target: T11, M5 (Homo sapiens, UniProt P08912); experiment: Off-target binding screen; conditions: read-out: % Inhibition of Control Specific Binding; for inhibition at 1 µM: 1000 nM
T11 construct: Eurofins Pharma Discovery Services (contract assay)
T11 sequence (P08912 1-532): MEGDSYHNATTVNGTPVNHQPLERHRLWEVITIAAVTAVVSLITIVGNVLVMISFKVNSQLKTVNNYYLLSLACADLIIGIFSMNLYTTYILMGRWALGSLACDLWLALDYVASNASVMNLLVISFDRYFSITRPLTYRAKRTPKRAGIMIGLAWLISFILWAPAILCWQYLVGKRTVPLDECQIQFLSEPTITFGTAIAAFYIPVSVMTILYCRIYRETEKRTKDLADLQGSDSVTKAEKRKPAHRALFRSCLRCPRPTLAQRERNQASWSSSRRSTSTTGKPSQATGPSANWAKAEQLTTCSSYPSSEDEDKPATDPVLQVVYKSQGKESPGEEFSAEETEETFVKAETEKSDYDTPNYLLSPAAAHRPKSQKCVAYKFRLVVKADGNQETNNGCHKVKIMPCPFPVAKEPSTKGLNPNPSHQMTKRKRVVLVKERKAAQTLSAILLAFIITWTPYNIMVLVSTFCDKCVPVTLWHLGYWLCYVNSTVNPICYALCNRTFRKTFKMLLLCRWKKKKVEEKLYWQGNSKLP

[13] = target: T12, H3 (Homo sapiens, UniProt Q9Y5N1); experiment: Off-target binding screen; conditions: 1000 nM, read-out: % Inhibition of Control Specific Binding
T12 construct: Eurofins Pharma Discovery Services (contract assay)
T12 sequence (Q9Y5N1 whole entry): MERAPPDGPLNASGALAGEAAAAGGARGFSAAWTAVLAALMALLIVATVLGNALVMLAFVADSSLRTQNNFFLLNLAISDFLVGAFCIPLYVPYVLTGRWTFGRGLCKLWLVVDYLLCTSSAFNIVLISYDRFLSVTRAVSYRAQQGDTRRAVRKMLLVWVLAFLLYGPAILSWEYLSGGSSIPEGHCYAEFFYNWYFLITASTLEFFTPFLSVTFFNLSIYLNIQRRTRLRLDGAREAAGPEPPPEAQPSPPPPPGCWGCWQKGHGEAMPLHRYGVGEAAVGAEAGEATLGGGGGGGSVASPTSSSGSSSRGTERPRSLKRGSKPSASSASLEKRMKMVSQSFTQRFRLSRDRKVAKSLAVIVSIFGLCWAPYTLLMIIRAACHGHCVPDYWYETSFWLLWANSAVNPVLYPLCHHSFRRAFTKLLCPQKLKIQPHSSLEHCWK

[14] = target: T13, σ2 (Homo sapiens, UniProt Q5BJF2); experiment: Off-target binding screen; conditions: read-out: % Inhibition of Control Specific Binding; for inhibition at 0.01 µM: 10 nM; for inhibition at 0.1 µM: 100 nM; for inhibition at 1 µM: 1000 nM
T13 construct: Eurofins Pharma Discovery Services (contract assay)
T13 sequence (Q5BJF2 whole entry): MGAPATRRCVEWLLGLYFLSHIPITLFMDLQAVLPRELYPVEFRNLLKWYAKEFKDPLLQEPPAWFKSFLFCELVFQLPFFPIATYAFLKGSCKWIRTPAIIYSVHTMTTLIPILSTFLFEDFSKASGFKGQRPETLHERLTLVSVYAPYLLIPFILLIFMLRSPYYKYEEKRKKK

[15] = test system: BZD (peripheral); experiment: Off-target binding screen; conditions: 1000 nM

| SMILES | CLint scaled at […], 50 µM [1] [mL/min/kg] | % Inhibition of Tail Current in hERG-CHO ([2]; 0,1 µM) [%] | % Inhibition of Tail Current in hERG-CHO ([2]; 1 µM) [%] | % Inhibition of Tail Current in hERG-CHO ([2]; 10 µM) [%] | inhibition at 1 µM [3] [%] | inhibition at 1 µM [4] [%] | inhibition at 1 µM [5] [%] | inhibition at 1 µM [6] [%] | inhibition at 1 µM [7] [%] | inhibition at 0.01 µM [8] [%] | inhibition at 1 µM [8] [%] | inhibition at 1 µM [9] [%] | inhibition at 1 µM [10] [%] | inhibition at 1 µM [11] [%] | inhibition at 1 µM [12] [%] | inhibition at 1 µM [13] [%] | inhibition at 0.01 µM [14] [%] | inhibition at 0.1 µM [14] [%] | inhibition at 1 µM [14] [%] | % Inhibition of Control Specific Binding [15] [%] | further results |
| --- | --- | --- | --- | --- | --- | --- | --- | --- | --- | --- | --- | --- | --- | --- | --- | --- | --- | --- | --- | --- | --- |
| O=C(c1ccc(F)c(Cl)c1)N1CCC(F)(CNCCOc2ccccc2)CC1 [Compound 3] | 41.7 | 1.0 | 14.2 | 64.9 | 48 | -1 | -9 | 32 | 30 | 12 | 69 | 4 | -20 | -9 | 3 | -14 | 11 | 33 | 82 | -1.0 | inhibition at 0.1 µM [8]: 26% |
| O=C(c1ccc(F)c(Cl)c1)N1CCC(F)(CNCCOc2cccc3[nH]ccc23)CC1 [Compound 56, (4-(((2-((1H-Indol-4-yl)oxy)ethyl)amino)methyl)-4-fluoropiperidin-1-yl)(3-chloro-4-fluorophenyl)methanone] | 9.6 | 0.3 | 6.4 | 21.1 | – | 53 | 1 | 69 | 89 | 36 | 99 | 1 | -8 | -10 | 54 | -17 | -1 | 31 | 63 | -1.0 | inhibition at 0.001 µM ([3]; 1 nM): -14%; inhibition at 0.01 µM ([3]; 10 nM): 27%; inhibition at 0.1 µM ([3]; 100 nM): 80%; inhibition at 0.01 µM ([4]; 10 nM): -18%; inhibition at 0.1 µM ([4]; 100 nM): 12%; inhibition at 0.01 µM [6]: -6%; inhibition at 0.1 µM [6]: 11%; inhibition at 0.01 µM ([7]; 10 nM): 12%; inhibition at 0.1 µM ([7]; 100 nM): 52%; inhibition at 0.001 µM ([8]; 1 nM): 41%; inhibition at 0.1 µM [8]: 85%; inhibition at 0.01 µM ([12]; 10 nM): 4%; inhibition at 0.1 µM ([12]; 100 nM): -3% |
| CNc1ccccc1OCCNCC1(F)CCN(C(=O)c2ccc(F)c(Cl)c2)CC1 [Compound 44, (3-Chloro-4-fluorophenyl)(4-fluoro-4-(((2-(2-(methylamino)phenoxy)ethyl)amino)methyl)piperidin-1-yl)methanone] | 48.8 | – | 17.5 | – | 38 | 2 | 3 | – | 36 | – | 42 | -5 | -12 | -11 | -1 | -13 | 2 | 10 | 52 | -5.0 | inhibition at 0.01 µM [6]: -3%; inhibition at 0.1 µM [6]: -6% |
